Data as given in article PMC6321543, “Cloning, Characterization and Anion Inhibition Studies of a β-Carbonic Anhydrase from the Pathogenic Protozoan Entamoeba histolytica” (Molecules, 2018).

What follows are compounds tested against T1, EhiCA (Entamoeba histolytica, UniProt C4LXK3) (assay: biochemical). Conditions: not given.
T1 construct: gene EHI_073380; His-tag cleaved with thrombin; 21 kDa (21/25 kDa doublet); one Zn per chain; Zn ligands Cys50, His103, Cys106, dyad Asp52-Arg54; dimer and trimer seen on SDS-PAGE
T1 sequence (C4LXK3 1-188): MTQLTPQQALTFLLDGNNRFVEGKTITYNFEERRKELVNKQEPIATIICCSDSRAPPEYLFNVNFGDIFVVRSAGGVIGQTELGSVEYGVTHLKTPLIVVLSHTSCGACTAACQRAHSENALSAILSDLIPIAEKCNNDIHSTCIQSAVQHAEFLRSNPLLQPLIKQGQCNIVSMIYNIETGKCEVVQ

Structure (SMILES)	Ki [mM]
O=P(O)(O)OP(=O)(O)O [P2O7^4−]	> 100
I [I^−]	7.4
N#CS [SCN^−]	7.9
O=S(=O)(O)O [SO4^2−]	21.6

Same assay, conditions: CO2 hydration, TRIS pH 8.3, 20 °C (methods: 25 °C), 0.1 M NaClO4, 15 min pre-incubation; as sodium salt; read-out: KI [mM] ^#

Structure (SMILES)	Ki [mM]
F[P-](F)(F)(F)(F)F [PF6^−]	> 100

Same assay, conditions: read-out: KI [mM] ^#

Structure (SMILES)	Ki [mM]
O=NO [NO2^−]	1.7
O=S(=O)(O)F [FSO3^−]	0.086
Br [Br^−]	36.8
[O]=[V]([OH])([OH])[O][V](=[O])([OH])[OH] [V2O7^4−]	> 100
F[B-](F)(F)F [BF4^−]	> 100
O=S(=O)(O)NS(=O)(=O)O [NH(SO3)2^2−]	2.2
[O]=[Ru](=[O])(=[O])[OH] [RuO4^−]	7
Cl [Cl^−]	> 100
N#C[SeH] [SeCN^−]	0.87
N#CO [CNO^−]	0.77
F [F^−]	> 100
O=[Se](=O)(O)O [SeO4^2−]	6
O=S(O)O [HSO3^−]	11.5
[O-][Cl+3]([O-])([O-])O [ClO4^−]	> 100
NS(N)(=O)=O [H2NSO2NH2]	0.028
S [HS^−]	6.9
O=S(=O)(O)C(F)(F)F [CF3SO3^−]	> 100
OB(O)c1ccccc1 [Ph-B(OH)2]	0.047
NS(=O)(=O)O [H2NSO3H]	> 100
O=[Te](=O)(O)O [TeO4^2−]	0.61
O=S(=O)(O)OOS(=O)(=O)O [S2O8^2−]	8.4
S=C(S)S [CS3^2−]	6
[O]=[Re](=[O])(=[O])[OH] [ReO4^−]	7.1
O=[N+]([O-])O [NO3^−]	3.6
CCN(CC)C(=S)S [Et2NCS2^−]	0.51
